Target: T1, 5HTR2B (Homo sapiens, UniProt P41595)
T1 construct: host or cells: human Maverick/293 cells
Test: 5HTR2B antagonist activity, calcium mobilization assay in human Maverick/293 cells (serotonin as agonist)
Type: cell-based
Conditions: intracellular calcium, emission 525 nm, read-out: Ca assay IC50
Method in brief: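 Serum-starved (2 h) human Maverick/293 cells loaded with calcium dye for 50 min at 37 °C, then antagonist preincubated 15-30 min before serotonin challenge. Calcium fluorescence (ex 485/em 525 nm) recorded for 80 s; peak-based % inhibition fitted sigmoidally for IC50.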

T1 sequence (P41595 whole entry): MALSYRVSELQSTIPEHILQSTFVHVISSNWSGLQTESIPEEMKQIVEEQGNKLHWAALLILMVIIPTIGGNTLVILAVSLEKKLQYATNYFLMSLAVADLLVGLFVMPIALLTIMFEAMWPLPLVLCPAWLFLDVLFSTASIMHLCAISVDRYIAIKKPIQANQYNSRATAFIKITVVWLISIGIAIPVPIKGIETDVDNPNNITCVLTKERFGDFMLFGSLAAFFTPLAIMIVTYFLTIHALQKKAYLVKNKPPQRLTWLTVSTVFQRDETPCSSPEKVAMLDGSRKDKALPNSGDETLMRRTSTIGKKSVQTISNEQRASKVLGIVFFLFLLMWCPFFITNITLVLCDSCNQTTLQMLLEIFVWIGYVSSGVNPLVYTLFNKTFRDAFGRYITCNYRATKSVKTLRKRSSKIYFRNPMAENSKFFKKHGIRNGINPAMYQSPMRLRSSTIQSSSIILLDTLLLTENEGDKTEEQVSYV

IC50	SMILES
106 nM	COc1ccc(S(=O)(=O)N[C@H]2CCOC2)cc1C(=O)Nc1nc(C)c(F)c(Cl)n1 [Compound 171, (S)—N-(4-chloro-5-fluoro-6-methylpyrimidin-2-yl)-2-methoxy-5-(N-(tetrahydrofuran-3-yl)sulfamoyl)benzamide]
39 nM	COc1ccc(S(=O)(=O)N[C@H]2CCOC2)cc1C(=O)Nc1ccccc1C1CC1 [Compound 151, (S)—N-(2-Cyclopropylphenyl)-2-methoxy-5-(N-(tetrahydrofuran-3-yl)sulfamoyl) benzamide]
1.8 nM	COc1ccc(S(=O)(=O)N[C@H]2CCOC2)cc1C(=O)Nc1cc(Cl)cc(Cl)c1 [Compound 86, (S)—N-(3,5-Dichlorophenyl)-2-methoxy-5-(N-(tetrahydrofuran-3-yl)sulfamoyl) benzamide]
0.8 nM	COc1ccc(S(=O)(=O)N[C@H]2C[C@@H](O)C2)cc1C(=O)Nc1ccc(F)c(C)c1F [Compound 173, N-(2,4-Difluoro-3-methylphenyl)-5-(N-((cis)-3-hydroxycyclobutyl)sulfamoyl)-2-methoxybenzamide]
1.6 nM	COc1ccc(S(=O)(=O)N[C@H]2CCOC2)cc1C(=O)Nc1ccccc1F [Compound 99, (S)—N-(2-Fluorophenyl)-2-methoxy-5-(N-(tetrahydrofuran-3-yl)sulfamoyl) benzamide]
159 nM	COc1ccc(S(=O)(=O)N[C@H]2C[C@H](O)C2)cc1C(=O)Nc1ccc(F)cn1 [Compound 156]
0.5 nM	COc1ccc(S(=O)(=O)N[C@H]2C[C@H](O)C2)cc1C(=O)Nc1ccc(F)cc1Cl [Compound 144a, N-(2-chloro-4-fluorophenyl)-5-(N-((trans)-3-hydroxycyclobutyl)sulfamoyl)-2-methoxybenzamide]
0.9 nM	[2H]C([2H])([2H])Oc1ccc(S(=O)(=O)N[C@H]2CCOC2)cc1C(=O)Nc1ccc(F)cc1 [Compound 190, (S)—N-(4-fluorophenyl)-2-(methoxy-d3)-5-(N-(tetrahydrofuran-3-yl)sulfamoyl) benzamide]
201 nM	COc1ccc(S(=O)(=O)N[C@H]2CCOC2)cc1C(=O)Nc1ccc(C#N)cc1 [Compound 104, (S)—N-(4-Cyanophenyl)-2-methoxy-5-(N-(tetrahydrofuran-3-yl)sulfamoyl) benzamide]
1 nM	COc1ccc(S(=O)(=O)N[C@H]2C[C@@H](O)C2)cc1C(=O)Nc1cc(F)ccc1Cl [Compound 146b, N-(2-chloro-5-fluorophenyl)-5-(N-((cis)-3-hydroxycyclobutyl)sulfamoyl)-2-methoxybenzamide]
24 nM	COc1ccc(S(=O)(=O)N2CCCC2)cc1C(=O)Nc1ccc(F)c(C)n1 [Compound 30, N-(5-Fluoro-6-methylpyridin-2-yl)-2-methoxy-5-(pyrrolidin-1-ylsulfonyl) benzamide]
9.9 nM	COc1ccc(S(=O)(=O)N[C@H]2CCOC2)cc1C(=O)Nc1ccccc1OC(F)(F)F [Compound 150, (S)-2-Methoxy-5-(N-(tetrahydrofuran-3-yl)sulfamoyl)-N-(2-(trifluoromethoxy)phenyl)benzamide]
0.8 nM	COc1ccc(S(=O)(=O)N[C@H]2CCCOC2)cc1C(=O)Nc1ccc(F)c(C(F)F)c1 [Compound 37, (S)—N-(3-(Difluoromethyl)-4-fluorophenyl)-2-methoxy-5-(N-(tetrahydro-2H-pyran-3-yl)sulfamoyl)benzamide]
1.8 nM	COCC(C)NS(=O)(=O)c1ccc(OC)c(C(=O)Nc2ccc(F)c(C(F)F)c2)c1 (single isomer, unassigned) [Compound 32a, (R*)—N-(3-(Difluoromethyl)-4-fluorophenyl)-2-methoxy-5-(N-(1-methoxypropan-2-yl)sulfamoyl)benzamide]
1.3 nM	COc1ccc(S(=O)(=O)N[C@@H]2CC[C@H](O)C2)cc1C(=O)Nc1ccc(F)cc1 (single isomer, unassigned) [Compound 45a, N-(4-Fluorophenyl)-5-(N-((cis)-3-hydroxycyclopentyl)sulfamoyl)-2-methoxybenzamide]
